Patent publication US11767322B2 (BRISTOL-MYERS SQUIBB COMPANY, priority 2020, dated 2023)
Like-named read-outs stand apart in the source and are kept apart here.

Columns and labels:
[1] = target: T1, His-GST-TVMV-hRIPK1(1-324) (Homo sapiens, UniProt Q13546); assay: biochemical; assay type: binding; conditions: HTRF probe displacement, 1 h at rt; read-out: RIPK1 IC50
T1 construct: The coding region of human RIPK1(1-324) flanked by NdeI site at 5′ end; made in house; host or cells: Spodoptera frugiperda Sf9 insect cells (baculovirus, Bac-to-Bac)
T1 sequence (Q13546 1-324): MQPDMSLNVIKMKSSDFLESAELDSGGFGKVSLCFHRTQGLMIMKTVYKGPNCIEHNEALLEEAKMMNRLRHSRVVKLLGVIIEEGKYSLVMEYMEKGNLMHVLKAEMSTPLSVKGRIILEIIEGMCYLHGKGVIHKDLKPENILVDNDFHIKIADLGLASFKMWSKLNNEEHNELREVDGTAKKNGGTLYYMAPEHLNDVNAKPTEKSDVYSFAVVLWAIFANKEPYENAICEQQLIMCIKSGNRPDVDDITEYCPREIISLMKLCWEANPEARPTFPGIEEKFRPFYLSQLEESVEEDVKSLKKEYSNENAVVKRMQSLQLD

[2] = system: MLKL phosphorylation in HT29-L23 human colorectal adenocarcinoma cells; assay: MLKL phosphorylation high-content assay; assay type: cell-based; conditions: necroptosis induced with TNFα, SMAC mimetic and Z-VAD, 6 h, maximal inhibition defined by Nec1s
[3] = target: GST-tagged PIK3Cδ in complex with PIK3R1 (Homo sapiens, UniProt O00329); assay: PI3Kδ HTRF binding assay; conditions: HTRF probe displacement, 1 h at rt; read-out: PIK3CD IC50
GST-tagged PIK3Cδ in complex with PIK3R1, sequence (O00329 whole entry): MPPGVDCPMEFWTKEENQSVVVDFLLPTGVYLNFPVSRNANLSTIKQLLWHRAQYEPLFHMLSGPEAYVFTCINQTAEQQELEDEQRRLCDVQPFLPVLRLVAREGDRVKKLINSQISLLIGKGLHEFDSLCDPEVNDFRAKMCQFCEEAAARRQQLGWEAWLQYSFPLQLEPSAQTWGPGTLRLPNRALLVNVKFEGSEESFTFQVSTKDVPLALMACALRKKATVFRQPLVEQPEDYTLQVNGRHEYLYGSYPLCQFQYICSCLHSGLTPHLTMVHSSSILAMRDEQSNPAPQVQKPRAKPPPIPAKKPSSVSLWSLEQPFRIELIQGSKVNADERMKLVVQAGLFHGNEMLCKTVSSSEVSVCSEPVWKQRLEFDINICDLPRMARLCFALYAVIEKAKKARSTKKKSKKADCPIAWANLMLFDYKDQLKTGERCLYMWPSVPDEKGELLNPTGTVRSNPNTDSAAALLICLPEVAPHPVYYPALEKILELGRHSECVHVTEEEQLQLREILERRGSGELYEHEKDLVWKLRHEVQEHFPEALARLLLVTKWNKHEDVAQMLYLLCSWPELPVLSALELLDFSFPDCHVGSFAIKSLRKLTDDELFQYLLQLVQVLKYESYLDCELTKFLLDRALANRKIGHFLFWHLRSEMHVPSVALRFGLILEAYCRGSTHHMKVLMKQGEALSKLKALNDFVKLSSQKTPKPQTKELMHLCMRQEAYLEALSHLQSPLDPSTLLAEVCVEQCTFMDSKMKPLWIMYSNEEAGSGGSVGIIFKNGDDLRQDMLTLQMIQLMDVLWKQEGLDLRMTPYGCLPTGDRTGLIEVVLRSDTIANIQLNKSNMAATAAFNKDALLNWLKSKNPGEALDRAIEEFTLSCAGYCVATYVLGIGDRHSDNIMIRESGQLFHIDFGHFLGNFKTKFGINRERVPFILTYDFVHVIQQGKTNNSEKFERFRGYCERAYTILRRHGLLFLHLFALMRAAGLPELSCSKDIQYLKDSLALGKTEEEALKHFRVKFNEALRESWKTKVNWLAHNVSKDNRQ
GST-tagged PIK3Cδ in complex with PIK3R1, sequence (P27986 whole entry partner): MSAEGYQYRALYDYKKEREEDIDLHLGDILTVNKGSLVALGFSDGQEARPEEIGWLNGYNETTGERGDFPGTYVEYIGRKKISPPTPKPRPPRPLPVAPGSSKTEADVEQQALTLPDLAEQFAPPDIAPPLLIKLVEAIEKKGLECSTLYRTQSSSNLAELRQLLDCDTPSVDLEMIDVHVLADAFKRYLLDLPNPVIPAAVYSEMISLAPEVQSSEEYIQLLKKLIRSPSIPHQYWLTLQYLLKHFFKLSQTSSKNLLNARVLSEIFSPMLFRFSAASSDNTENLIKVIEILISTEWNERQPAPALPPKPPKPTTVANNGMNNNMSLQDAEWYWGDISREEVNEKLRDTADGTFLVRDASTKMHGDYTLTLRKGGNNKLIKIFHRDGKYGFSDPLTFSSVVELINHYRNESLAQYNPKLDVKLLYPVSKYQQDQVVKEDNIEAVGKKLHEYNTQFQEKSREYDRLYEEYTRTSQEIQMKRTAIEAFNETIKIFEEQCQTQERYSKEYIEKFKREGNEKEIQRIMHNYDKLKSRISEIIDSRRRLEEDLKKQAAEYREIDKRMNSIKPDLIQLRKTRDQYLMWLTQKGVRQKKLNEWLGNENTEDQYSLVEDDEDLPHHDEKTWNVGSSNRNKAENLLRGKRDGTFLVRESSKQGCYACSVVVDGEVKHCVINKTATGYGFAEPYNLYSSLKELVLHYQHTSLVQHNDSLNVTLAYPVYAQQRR

[4] = read-out: pMLKL IC50, HT29-L23 cells
[5] = Homo sapiens, read-out: pMLKL IC50, HT29-L23 cells

Cc1cc(F)c(-c2ccn3nc(N)nc3c2)cc1C(=O)NCC(F)(F)C(O)c1ccc(F)cc1 (single isomer, unassigned) [Example 97, 5-(2-amino-[1,2,4]triazolo[1,5-a]pyridin-7-yl)-N-(2,2-difluoro-3-(4-fluorophenyl)-3-hydroxypropyl)-4-fluoro-2-methylbenzamide]
IC50 [1]: 1.3 nM
IC50 [2, 4]: 6.4 nM
IC50 [3]: > 15000 nM

Cc1cc(F)c(-c2ccn3nc(N)nc3c2)cc1C(=O)NCC(F)(F)C(O)c1ccc(F)cc1 (single isomer, unassigned) [Example 98, 5-(2-amino-[1,2,4]triazolo[1,5-a]pyridin-7-yl)-N-(2,2-difluoro-3-(4-fluorophenyl)-3-hydroxypropyl)-4-fluoro-2-methylbenzamide]
IC50 [1]: 2.8 nM
IC50 [2, 4]: 1.2 nM
IC50 [3]: > 15000 nM

Cc1ccc(-c2ccn3nc(N)nc3c2)c(F)c1C(=O)NCC(F)(F)C(O)c1ccc(F)c(F)c1 (single isomer, unassigned) [Example 198, 3-(2-amino-[1,2,4]triazolo[1,5-a]pyridin-7-yl)-N-(3-(3,4-difluorophenyl)-2,2-difluoro-3-hydroxypropyl)-2-fluoro-6-methylbenzamide]
IC50 [1]: 6.4 nM
IC50 [2, 4]: 1.3 nM
IC50 [3]: > 15000 nM

Cc1ccc(-c2ccn3nc(N)nc3c2)c(F)c1C(=O)NCC(F)(F)C(O)c1ccc(F)c(F)c1 (single isomer, unassigned) [Example 199, 3-(2-amino-[1,2,4]triazolo[1,5-a]pyridin-7-yl)-N-(3-(3,4-difluorophenyl)-2,2-difluoro-3-hydroxypropyl)-2-fluoro-6-methylbenzamide]
IC50 [1]: 1.4 nM
IC50 [2, 4]: 0.6 nM
IC50 [3]: > 15000 nM

Cc1ccc(-c2ccn3nc(N)nc3c2)c(F)c1C(=O)NCC(F)(F)C(C)(O)c1ccc(Cl)cc1 (single isomer, unassigned) [Example 221, 3-(2-amino-[1,2,4]triazolo[1,5-a]pyridin-7-yl)-N-(3-(4-chlorophenyl)-2,2-difluoro-3-hydroxybutyl)-2-fluoro-6-methylbenzamide]
IC50 [1]: 3.2 nM
IC50 [2, 5]: 0.9 nM
IC50 [3]: > 15000 nM

Cc1ccc(-c2ccn3nc(N)nc3c2)c(F)c1C(=O)NCC(F)(F)C(C)(O)c1ccc(Cl)cc1 (single isomer, unassigned) [Example 222, 3-(2-amino-[1,2,4]triazolo[1,5-a]pyridin-7-yl)-N-(3-(4-chlorophenyl)-2,2-difluoro-3-hydroxybutyl)-2-fluoro-6-methylbenzamide]
IC50 [1]: 3.2 nM
IC50 [2, 4]: 1 nM
IC50 [3]: > 15000 nM

CC(O)(c1ccc(Cl)cc1)C(F)(F)CNC(=O)c1c(Cl)ccc(-c2ccn3nc(N)nc3c2)c1F (single isomer, unassigned) [Example 223, 3-(2-amino-[1,2,4]triazolo[1,5-a]pyridin-7-yl)-6-chloro-N-(3-(4-chlorophenyl)-2,2-difluoro-3-hydroxybutyl)-2-fluorobenzamide]
IC50 [1]: 5.8 nM
IC50 [2, 4]: 71 nM
IC50 [3]: > 15000 nM

CC(O)(c1ccc(Cl)cc1)C(F)(F)CNC(=O)c1c(Cl)ccc(-c2ccn3nc(N)nc3c2)c1F (single isomer, unassigned) [Example 224, 3-(2-amino-[1,2,4]triazolo[1,5-a]pyridin-7-yl)-6-chloro-N-(3-(4-chlorophenyl)-2,2-difluoro-3-hydroxybutyl)-2-fluorobenzamide]
IC50 [1]: 5.2 nM
IC50 [2, 4]: 4.1 nM
IC50 [3]: > 15000 nM

Cc1c(F)cc(-c2ccn3nc(N)nc3c2)cc1C(=O)NCC(F)(F)C(O)c1ccc(F)cc1 (single isomer, unassigned) [Example 231, 5-(2-amino-[1,2,4]triazolo[1,5-a]pyridin-7-yl)-N-(2,2-difluoro-3-(4-fluorophenyl)-3-hydroxypropyl)-3-fluoro-2-methylbenzamide]
IC50 [1]: 2 nM
IC50 [2, 4]: 1.2 nM
IC50 [3]: > 15000 nM

Cc1c(F)cc(-c2ccn3nc(N)nc3c2)cc1C(=O)NCC(F)(F)C(O)c1ccc(F)cc1 (single isomer, unassigned) [Example 232, 5-(2-amino-[1,2,4]triazolo[1,5-a]pyridin-7-yl)-N-(2,2-difluoro-3-(4-fluorophenyl)-3-hydroxypropyl)-3-fluoro-2-methylbenzamide]
IC50 [1]: 4.5 nM
IC50 [2, 4]: 3 nM
IC50 [3]: > 15000 nM

[2H]C([2H])([2H])C(O)(c1ccc(F)cc1)C(F)CNC(=O)c1c(Cl)ccc(-c2ccn3nc(N)nc3c2)c1F (single isomer, unassigned) [Example 238, 3-(2-amino-[1,2,4]triazolo[1,5-a]pyridin-7-yl)-6-chloro-2-fluoro-N-(2-fluoro-3-(4-fluorophenyl)-3-hydroxybutyl-4,4,4-d3)benzamide]
IC50 [1]: 16 nM
IC50 [2, 4]: 1.9 nM
IC50 [3]: > 15000 nM

[2H]C([2H])([2H])C(O)(c1ccc(F)cc1)C(F)CNC(=O)c1c(Cl)ccc(-c2ccn3nc(N)nc3c2)c1F (single isomer, unassigned) [Example 239, 3-(2-amino-[1,2,4]triazolo[1,5-a]pyridin-7-yl)-6-chloro-2-fluoro-N-(2-fluoro-3-(4-fluorophenyl)-3-hydroxybutyl-4,4,4-d3)benzamide]
IC50 [1]: 55 nM
IC50 [2, 4]: 26 nM
IC50 [3]: > 15000 nM

[2H]C([2H])(CC([2H])(O)c1ccc(Cl)cc1)NC(=O)c1c(F)ccc(-c2ccn3nc(N)nc3c2)c1F (single isomer, unassigned) [Example 250, 3-(2-amino-[1,2,4]triazolo[1,5-a]pyridin-7-yl)-N-(3-(4-chlorophenyl)-3-hydroxypropyl-1,1,3-d3)-2,6-difluorobenzamide]
IC50 [1]: 13 nM
IC50 [2, 5]: 21 nM
IC50 [3]: > 15000 nM

Nc1nc2cc(-c3ccc(Cl)c(C(=O)NCC(F)(F)C(O)c4ccc(Cl)c(Cl)c4)c3F)ccn2n1 (single isomer, unassigned) [Example 264, 3-{2-amino-[1,2,4]triazolo[1,5-a]pyridin-7-yl}-6-chloro-N-[3-(3,4-dichlorophenyl)-2,2-difluoro-3-hydroxypropyl]-2-fluorobenzamide]
IC50 [1]: 6.2 nM
IC50 [2, 4]: 1 nM
IC50 [3]: > 15000 nM

Nc1nc2cc(-c3ccc(Cl)c(C(=O)NCC(F)(F)C(O)c4ccc(Cl)c(Cl)c4)c3F)ccn2n1 (single isomer, unassigned) [Example 265, 3-{2-amino-[1,2,4]triazolo[1,5-a]pyridin-7-yl}-6-chloro-N-[3-(3,4-dichlorophenyl)-2,2-difluoro-3-hydroxypropyl]-2-fluorobenzamide]
IC50 [1]: 4.1 nM
IC50 [2, 4]: 3.6 nM
IC50 [3]: > 15000 nM

CCc1ccc(-c2ccn3nc(N)nc3c2)c(F)c1C(=O)NCC(F)(F)C(O)c1ccc(F)cn1 (single isomer, unassigned) [Example 266, 3-(2-amino-[1,2,4]triazolo[1,5-a]pyridin-7-yl)-N-(2,2-difluoro-3-(5-fluoropyridin-2-yl)-3-hydroxypropyl)-6-ethyl-2-fluorobenzamide]
IC50 [1]: 13 nM
IC50 [2, 5]: 2.4 nM
IC50 [3]: > 15000 nM

Nc1nc2cc(-c3ccc(Cl)c(C(=O)NCC(F)(F)C(O)c4ccc(Cl)c(Cl)n4)c3F)ccn2n1 (single isomer, unassigned) [Example 272, 3-(2-amino-[1,2,4]triazolo[1,5-a]pyridin-7-y)-6-chloro-N-(3-(5,6-dichloropyridin-2-yl)-2,2-difluoro-3-hydroxypropyl)-2-fluorobenzamide]
IC50 [1]: 6.8 nM
IC50 [2, 5]: 11 nM
IC50 [3]: > 15000 nM
